Assay results from patent US8329683B2 (Nexgenix Pharmaceuticals, LLC, priority 2006, dated 2012).
Read-outs that look alike come from different tables or passages of the source. Each block holds one compound with its values, some of them ahead of it.

Assays:
HSP90 = HSP90 affinity in a competition assay with geldanamycin; format: binding
ErbB2 = assay: Western blot of ErbB2 in NF2-deficient cells; format: cell-based, mouse and human; settings: NF2-deficient cells (Nf2-/- mouse Schwann, meningioma, mesothelioma); dose- and time-dependent
Description: (§1) It has been shown that inhibition of HSP90 function in breast cancer cells causes down-regulation of Akt (Basso et al., 2002, J. Biol. Chem. 277(42): 39858-39866). The inventors of the present invention have determined that phospho-Akt levels are elevated in Nf1−/− mouse Schwann cells, NF2 defient human schwannomas, NF2-deficient meningioma xenografts, NF2-deficient mesothelioma xenografts as compared to wild-type mouse Schwann cells and/or normal human peripheral nerves (reference is made to PCT/US2007/70366 application entitled “Treatment of Neurofibromatosis with Inhibitors of a Signal Transduction Pathway,” filed on Jun. 4, 2007, which is herein incorporated by reference in its entirety). To assess the effect of HSP90 inhibitors on phospho-Akt in NF2 deficient cells, Western blots were prepared from Nf2−/− mouse Schwann cells as an example. The cells were treated with 0.02 μM, 0.5 μM NXD30001 for 24 hours. […]
(§2) To assess the effect of the compounds of the present invention on ErbB2 and c-Raf in NF2-deficient cells, Western blots were prepared from various NF2-deficient cells, including Nf2−/− mouse Schwann cells, NF2-deficient meningioma cells, and NF2-deficient mesothelioma cells. […] The inventors of the present invention have determined that treatment of NF2-deficient cells with NXD30001 caused a decline of both ErbB2 and c-Raf levels (FIG. 1A). […]

phospho-Akt = assay: Western blot of phospho-Akt in Nf2-/- mouse Schwann cells; format: cell-based; settings: 0.02 μM, 0.5 μM, 24 hours, dose- and time-dependent
Description: (§3) It has been shown that inhibition of HSP90 function in breast cancer cells causes down-regulation of Akt (Basso et al., 2002, J. Biol. Chem. 277(42): 39858-39866). The inventors of the present invention have determined that phospho-Akt levels are elevated in Nf1−/− mouse Schwann cells, NF2 defient human schwannomas, NF2-deficient meningioma xenografts, NF2-deficient mesothelioma xenografts as compared to wild-type mouse Schwann cells and/or normal human peripheral nerves (reference is made to PCT/US2007/70366 application entitled “Treatment of Neurofibromatosis with Inhibitors of a Signal Transduction Pathway,” filed on Jun. 4, 2007, which is herein incorporated by reference in its entirety). To assess the effect of HSP90 inhibitors on phospho-Akt in NF2 deficient cells, Western blots were prepared from Nf2−/− mouse Schwann cells as an example. The cells were treated with 0.02 μM, 0.5 μM NXD30001 for 24 hours. As control the same cells were treated with vehicle DMSO for 24 hours. […] The loss of phospho-Akt was both dose- and time-dependent.

HSP70 = assay: Western blot of HSP70 in NF2-deficient cells; format: cell-based, mouse and human; settings: dose-dependent
Description: as §3
To assess the effect of the compounds of the present invention on HSP70 in NF2-deficient cells, Western blots were prepared from various NF2-deficient cells, including […], NF2-deficient schwannoma cells, NF2-deficient meningioma cells, and NF2-deficient mesothelioma cells. […]

[1] = tested on: NF1- and NF2-deficient human and mouse cells; assay: Cell proliferation assay (ATPlite); format: cell-based; settings: 3 days culture; IC50 values only in FIG. 3
Protocol: Inhibitors of HSP90 function is assayed for the ability to decrease the number of NF2 deficient tumor cells in a tumor, i.e., shrink a tumor, or reduce the proliferation of NF2 deficient tumor cells. The ability of inhibitors to decrease the number of NF2 deficient tumor cells in a sample or reduce proliferation of NF2 deficient tumor cells is assessed using a variety of methods known in the art. A small library of compounds of the present invention (total 14 oxime compounds) were assayed for inhibition of proliferation of NF1- and NF2-deficient cells. Cells used are Nf2−/− mouse embryonic stem cell (MESC), NF2-deficient human SF1335 meningioma cells, NF2-deficient HEI193 schwanoma cells, NF2-deficient BAR and RAV mesothelioma cells, NF2-plus BLA mesothelioma cells, and NF1-deficient human malignant peripheral nerve sheath tumor (MPNST) cells. Appropriate number of cells that can reach ˜70% confluence in 3 days (2000-6000 cells/well) were plated in 96-well plates. Various concentrations of each compound were added to the growing media and the cells were then cultured for 3 days. A positive control compound (17-AAG) and a vehicle (DMSO) control were included with each assay. […] Viable cells were measured by detecting luminescence generated from reaction of ATPlite solution and the ATP in the cells.

c-Raf [2] = assay: Western blot of c-Raf in NF2-deficient cells; format: cell-based, mouse and human; settings: NF2-deficient cells (Nf2-/- mouse Schwann, meningioma, mesothelioma); dose- and time-dependent
Description: as §1, §2

c-Raf [3] = assay: Immunoblot of client protein degradation in ST88-14 MPNST cells; format: cell-based, human; settings: ST88-14 cells, 24 hr treatment, 8-1000 nM; read-out: IC50 of induced degradation of c-Raf
Protocol: (§4) Ras-Raf-Mek-Erk1/2 pathway is activated due to the loss of NF1 in these cells. In addition, EGFR is overexpressed in a number of NF1-deficient human and mouse cells. Human malignant peripheral nerve sheath tumor (MPNST) cell ST88-14 was treated with increasing concentration (8-1000 nM) of NXD30001 for 24 hr. Cells were lysed and clarified lysates were subjected SDS-PAGE, followed by immunoblot analysis using indicated antibodies. […] Equal lysate protein loading is shown by actin immunoblot.

EGFR = assay: as above; format: cell-based, human; settings: ST88-14 cells, 24 hr treatment, 8-1000 nM; read-out: IC50 of induced degradation of EGFR
Protocol: as §4

Cdk4 = assay: as above; format: cell-based, human; settings: ST88-14 cells, 24 hr treatment, 8-1000 nM; read-out: IC50 of induced degradation of Cdk4
Protocol: as §4

Akt = assay: as above; format: cell-based, human; settings: ST88-14 cells, 24 hr treatment, 8-1000 nM; read-out: IC50 of induced degradation of Akt
Protocol: as §4

[4] = toluene
[5] = rcm bond, 14-membered ring, Grubbs II (10 mol%), toluene, 2.0 mM, 80.0 °C
[6] = cited from earlier work

Compound: C[C@@H]1CC2O[C@@H]2CC/C=C/C(=O)Cc2c(Cl)c(O)cc(O)c2C(=O)O1 (stereo partly shown) [pochonin A]
IC50 (HSP90): 90 nM

IC50 (c-Raf [3]): ~100 nM
IC50 (EGFR): ~100 nM
IC50 (Cdk4): ~100 nM
IC50 (Akt): ~100 nM
Compound: O=C1OCC/C=C/CC/C=C/C(=N/OCC(=O)N2CCCCC2)Cc2c(Cl)c(O)cc(O)c21 [NXD30001]
ErbB2 levels (ErbB2): decline
phospho-Akt levels (phospho-Akt): decline of phospho-Akt levels
HSP70 protein level (HSP70): upregulation of HSP70
inhibition of cell proliferation [1]: Inhibit Proliferation
c-Raf levels (c-Raf [2]): decline

Compound: CCOCOc1cc2c(c(OCOCC)c1)C(=O)O[C@H](C)CC=CCCC=CC(=O)C2
ring closure, yield of all isomers ([4]; from C=CCCC=CC(=O)Cc1cc(OCOCC)cc(OCOCC)c1C(=O)O[C@H](C)CC=C, rcm bond, Grubbs II, 2.0 mM, 80.0 °C, 2 steps): 40%

Compound: C[C@@H]1CC=CCC/C=C/C(=O)Cc2c(Cl)c(O[Si](C)(C)C(C)(C)C)cc(O[Si](C)(C)C(C)(C)C)c2C(=O)O1
ring closure, yield of all isomers ([4]; from C=CCC/C=C/C(=O)Cc1c(Cl)c(O[Si](C)(C)C(C)(C)C)cc(O[Si](C)(C)C(C)(C)C)c1C(=O)O[C@H](C)CC=C, rcm bond, Grubbs II, 2.0 mM, 80.0 °C, 12.0 h): 87%

Compound: CCOCOc1cc(OCOCC)c2c(c1Cl)CC(=O)C=CCCC=CCC(C)OC2=O (stereo not shown)
ring closure, isolated yield [5]: 94%

Compound: CCOCOc1cc(OCOCC)c2c(c1Cl)CC(=NOCC(=O)N1CCCCC1)C=CCCC=CCCOC2=O
ring closure, yield of all isomers ([4]; from CCOCOc1cc(OCOCC)c(C(=O)O)c(CC(C=CCCC=CCCO)=NOCC(=O)N2CCCCC2)c1Cl, ester bond, PPh3/DIAD, 30.9 mM, 23.0 °C, 5.0 h): 60%

Compound: CCOCOc1cc2c(c(OCOCC)c1)C(=O)OC(C)CC=CCCC=CC(=O)C2 (stereo not shown)
ring closure, isolated yield ([5]; 2 steps): 40%

Compound: CCOCOc1cc(OCOCC)c2c(c1Cl)CC(=O)C=CCCC=CC[C@@H](C)OC2=O
ring closure, yield of all isomers ([4]; from C=CCCC=CC(=O)Cc1c(Cl)c(OCOCC)cc(OCOCC)c1C(=O)O[C@H](C)CC=C, rcm bond, Grubbs II, 2.0 mM, 80.0 °C): 94%

Compound: C[C@@H]1CC=CCC/C=C/C(=O)Cc2c(Cl)c(OCOCC[Si](C)(C)C)cc(OCOCC[Si](C)(C)C)c2C(=O)O1
ring closure, yield of all isomers ([4]; from C=CCC/C=C/C(=O)Cc1c(Cl)c(OCOCC[Si](C)(C)C)cc(OCOCC[Si](C)(C)C)c1C(=O)O[C@H](C)CC=C, rcm bond, Grubbs II, 2.0 mM, 80.0 °C, 12.0 h): 87%

IC50 (HSP90): 80 nM
Compound: C[C@@H]1C/C=C/CC/C=C/C(=O)Cc2c(Cl)c(O)cc(O)c2C(=O)O1 [pochonin D]

Compound: C[C@@H]1C[C@H]2O[C@@H]2/C=C\C=C\C(=O)Cc2c(Cl)c(O)cc(O)c2C(=O)O1 [radicicol, Radicicol, reference compound]
in vivo anti-tumor activity [6]: no in vivo anti-tumor activity
